Measurements published in EP4467153A1, “CONSTRAINED PEPTIDE INHIBITORS OF LRRK2-FADD INTERACTIONS” (University of Georgia Research Foundation, Inc., priority 2023, dated 2024).
“Also recorded” adds a separate entry of the source. Positions of bridges follow the written chain, without caps; N, C: chain ends. Non-standard residues stand in square brackets, D forms with d. Primed or numbered codes have the meaning given here. FAM = 5(6)-carboxyfluorescein label; S5 = C=CCCC[C@](C)(N)C(=O)O; PEG3′ = PEG3 spacer

Assays:
[1] = test system: primary cortical neurons expressing G2019S-LRRK2; assay: Assessment of neuronal death (apoptotic nuclear features of transfected neurons); assay type: cell-based, mouse; conditions: 48hr treatment, vs vehicle
Text: Disruption of the LRRK2-FADD PPI is neuroprotective. It has been previously shown that over-expression of mutant LRRK2 (G2019S or other pathogenic mutations) in primary cortical neurons results in apoptotic death of the neurons (see Iaccarino C, Crosio C, Vitale C, Sanna G, Carri MT, Barone P (2007) Apoptotic mechanisms in mutant LRRK2-mediated cell death. Hum Mol Genet 16, 1319-1326); and this example continues this area of identifying pathway(s) underlying cell-autonomous neuronal death in models of LRRK2-PD. […] Disruption of this interaction by dominant negative fragments of both FADD and LRRK2, or by deletion of the predicted FADD-binding domain within LRRK2, is neuroprotective against over-expression of mutant LRRK2. To determine whether FARMS could effectively disrupt the apoptotic death of primary neurons induced by pathogenic LRRK2, mouse embryonic cortical neurons were transiently transfected with G2019S-LRRK2 and increasing concentrations of the FARMS peptide were added. In cultures of neurons expressing G2019S-LRRK2, apoptotic Flag-positive neurons with characteristic fragmented and condensed nuclear apoptotic features, were observed as has been reported previously. […] A third neuron is visible within this field (with a condensed nucleus), however it is not expressing Flag-LRRK2, so would not be included in the assessment of neuronal death. the dose response of neuroprotection of FARMS was determined by counting the percentage of transfected neurons (stained with anti-Flag antibodies).
Assessment of Neuronal Death. […] Cells were centrifuged and counted and plated on poly-D-lysine coated glass coverslips at a density of 150,000/cm^2 in BrainPhys neuronal culture medium (StemCell Technologies) supplemented with SM1 Neuronal Supplement (StemCell Technologies), L-glutamine (0.5 mM) and […]. […] For quantification of apoptotic neuronal profiles, we used the approach described by Antoniou and colleagues. Briefly, individual Flag-positive neurons were assessed by a research blinded to the experimental conditions.

primary cortical neurons = assay: Uptake of FAM-labeled peptide in primary cortical neurons (confocal imaging); assay type: cell-based, mouse; conditions: neurons expressing G2019S-LRRK2, 1 µM
[2] = biological target: T1, LRRK2-FADD PPI (Flag G2019S-LRRK2 and V5-FADD) (Homo sapiens, UniProt Q5S007, G2019S); assay: Co-immunoprecipitation of LRRK2-FADD interaction in transfected HEK293T cells; assay type: cell-based
T1 construct: expressed in transfected cells; host or cells: HEK293T
T1 sequence (Q5S007 whole entry G2019S): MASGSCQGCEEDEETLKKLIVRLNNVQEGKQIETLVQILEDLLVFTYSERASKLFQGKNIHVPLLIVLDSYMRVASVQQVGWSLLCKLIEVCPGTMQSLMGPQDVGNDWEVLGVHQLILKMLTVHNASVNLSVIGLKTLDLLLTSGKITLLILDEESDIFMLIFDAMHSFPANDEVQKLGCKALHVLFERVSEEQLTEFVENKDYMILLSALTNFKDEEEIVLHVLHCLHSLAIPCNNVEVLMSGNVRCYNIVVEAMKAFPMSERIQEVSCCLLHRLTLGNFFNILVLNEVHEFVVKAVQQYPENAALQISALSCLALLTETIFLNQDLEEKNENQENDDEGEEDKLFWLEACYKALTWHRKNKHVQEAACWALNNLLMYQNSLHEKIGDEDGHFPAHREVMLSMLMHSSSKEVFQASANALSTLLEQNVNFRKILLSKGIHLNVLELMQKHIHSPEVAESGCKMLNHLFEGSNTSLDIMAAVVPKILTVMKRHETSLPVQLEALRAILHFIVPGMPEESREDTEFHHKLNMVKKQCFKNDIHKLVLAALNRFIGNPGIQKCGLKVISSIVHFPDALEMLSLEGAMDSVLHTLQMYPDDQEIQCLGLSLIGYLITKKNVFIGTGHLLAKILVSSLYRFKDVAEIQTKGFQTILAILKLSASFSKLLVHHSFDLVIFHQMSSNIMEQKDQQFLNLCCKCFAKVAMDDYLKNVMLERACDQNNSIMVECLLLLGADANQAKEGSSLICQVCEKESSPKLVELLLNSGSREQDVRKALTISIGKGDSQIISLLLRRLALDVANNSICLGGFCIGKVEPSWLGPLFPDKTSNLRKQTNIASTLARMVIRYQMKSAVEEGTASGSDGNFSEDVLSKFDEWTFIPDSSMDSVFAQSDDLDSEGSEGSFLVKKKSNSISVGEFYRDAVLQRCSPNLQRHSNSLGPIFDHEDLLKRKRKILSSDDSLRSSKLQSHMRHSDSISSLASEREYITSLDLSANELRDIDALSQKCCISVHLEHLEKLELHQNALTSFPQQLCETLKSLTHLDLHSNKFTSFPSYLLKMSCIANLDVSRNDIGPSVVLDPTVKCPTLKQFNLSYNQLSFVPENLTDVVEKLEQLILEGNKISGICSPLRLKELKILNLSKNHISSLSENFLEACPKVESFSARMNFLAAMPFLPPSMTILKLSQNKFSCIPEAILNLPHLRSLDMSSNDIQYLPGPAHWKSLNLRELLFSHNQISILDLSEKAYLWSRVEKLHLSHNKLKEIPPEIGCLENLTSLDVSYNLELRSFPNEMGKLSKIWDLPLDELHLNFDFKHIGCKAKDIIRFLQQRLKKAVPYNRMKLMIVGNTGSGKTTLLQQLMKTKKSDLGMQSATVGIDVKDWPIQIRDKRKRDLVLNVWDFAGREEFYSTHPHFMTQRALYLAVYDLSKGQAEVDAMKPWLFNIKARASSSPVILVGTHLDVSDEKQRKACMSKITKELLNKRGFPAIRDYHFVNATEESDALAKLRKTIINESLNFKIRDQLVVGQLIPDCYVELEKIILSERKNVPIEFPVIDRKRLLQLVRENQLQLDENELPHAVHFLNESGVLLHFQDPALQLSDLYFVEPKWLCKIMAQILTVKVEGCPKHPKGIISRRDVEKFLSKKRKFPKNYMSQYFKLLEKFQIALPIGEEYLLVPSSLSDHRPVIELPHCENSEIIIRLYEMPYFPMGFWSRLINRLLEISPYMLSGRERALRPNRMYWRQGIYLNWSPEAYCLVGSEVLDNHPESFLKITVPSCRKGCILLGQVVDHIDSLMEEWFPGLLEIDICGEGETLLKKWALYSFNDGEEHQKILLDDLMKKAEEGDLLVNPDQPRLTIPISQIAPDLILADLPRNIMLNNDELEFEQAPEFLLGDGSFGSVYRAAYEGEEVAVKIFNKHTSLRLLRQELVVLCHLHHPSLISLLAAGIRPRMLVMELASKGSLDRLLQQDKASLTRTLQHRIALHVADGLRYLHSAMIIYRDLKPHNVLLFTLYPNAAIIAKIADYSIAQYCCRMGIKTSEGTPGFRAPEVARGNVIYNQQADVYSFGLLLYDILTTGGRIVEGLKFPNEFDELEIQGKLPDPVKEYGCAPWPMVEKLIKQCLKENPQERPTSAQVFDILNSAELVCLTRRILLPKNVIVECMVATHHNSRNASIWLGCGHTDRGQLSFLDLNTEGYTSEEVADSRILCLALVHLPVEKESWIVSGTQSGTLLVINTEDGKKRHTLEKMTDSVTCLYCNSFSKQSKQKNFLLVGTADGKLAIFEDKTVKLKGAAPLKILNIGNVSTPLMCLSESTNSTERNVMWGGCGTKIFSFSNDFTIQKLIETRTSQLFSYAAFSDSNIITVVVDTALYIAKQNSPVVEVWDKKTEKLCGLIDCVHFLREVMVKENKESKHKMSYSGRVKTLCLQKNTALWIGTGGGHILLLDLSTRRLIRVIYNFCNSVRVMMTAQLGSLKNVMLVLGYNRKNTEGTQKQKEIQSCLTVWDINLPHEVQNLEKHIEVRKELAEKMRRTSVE
Procedure: It was then assessed whether this peptide library (FARM1-FARM5) could disrupt the interaction between over-expressed Flag G2019S-LRRK2 and V5-FADD by co-immunoprecipitation. Flag-LRRK2 was purified on anti-Flag resin and the eluate as well as the protein extract (input) separated by SDS-PAGE, with the membranes probed for V5 (FADD) and Flag (LRRK2). The transfected cells were treated with the indicated peptide (10 µM) for a total of 48 hr prior to collection. […] To minimize the use of primary mouse cortical neuron cultures, FARMS was used in subsequent experiments to examine the potential neuroprotective effects of LRRK2-FADD disruption.
Assessment of LRRK2-FADD interaction. Co-immunoprecipitation was undertaken to determine the effects of the stapled peptides on the LRRK2-FADD PPI, as previously described. Briefly, 10cm plates of HEK293T cells transiently expressing Flag-WT or mutant LRRK2 and V5-FADD (at a 3:1 ratio), and treated with different concentrations of FARM peptides (as indicated in the Figure legends), were washed in PBS and lysed in co-IP buffer (20mM HEPES, pH7.4; 150 mM NaCl; 0.1% NP40; 2 mM EGTA; 2 mM MgCl2; 10% glycerol, pH 7.2; protease and phosphatase cocktail [Agilent Technologies]) for 30 min on ice followed by 15 strokes with a Dounce glass homogenizer, and centrifugation at 13000 rpm for 15 min to remove cellular debris. Following pre-clearing with IgG-coupled beads, 40 µl of washed anti-Flag resin (Sigma-Aldrich) per mg of protein was added and the samples incubated under rotation overnight at 4°C. The following morning, the beads were centrifuged and washed a total of 5X with coIP buffer, before elution in 2X SDS sample buffer at 95°C for 10 min. The eluate (and input) was separated by SDS-PAGE and membranes probed with anti-Flag (LRRK2) and V5 (FADD).

In the case of “FARM5: FAM-labeled hydrocarbon-stapled FADD Armadillo domain peptide; mass fits SEQ ID NO. 6 KVADLVQEVQQAXDLQXRSK ({FAM-PEG3′}-KVADLVQEVQQA[S5]DLQ[S5]RSK-NH2; staple 13-17; also: FAM label, optionally 5(6)FAM-PEG3 on N-terminal lysine) [FAM-labeled hydrocarbon-stapled FADD Armadillo domain peptide; 6 …XDLQXRSK]”, the “percentage of neurons with apoptotic profiles” value (shortened to “percentage of neurons”) ([1]; 0.1 µM) is reported as “unable to significantly block apoptotic neuronal death”, the “percentage of neurons” value ([1]; 1 µM, listed as FARMS) is reported as “significantly reduced; also recorded: reduced evidence of chromatin condensation” and the “percentage of neurons” value ([1]; 10 µM, listed as FARMS) is reported as “significantly reduced; also recorded: restored neuronal death to WT levels”. The “fluorescent signal from the FAM peptide tag in neurons” value (primary cortical neurons) was “diffusely distributed throughout most neurons”, the “amount of FADD that co-purified with G2019S-LRRK2 (LRRK2-FADD interaction)” value ([2]; 10 µM, 48 hr, normalized to immunoprecipitated Flag-LRRK2, listed as FARMS) was “greatest, and most consistent, reduction; also recorded: reduced the interaction between LRRK2 and FADD” and the “dose-dependency of the disruption of the LRRK2-FADD PPI” value ([2]; 0.1 to 10 µM, 24hr) was “progressive reduction in the LRRK2-FADD PPI with increasing doses”.
